Entries after “also recorded” stand apart in the source; their conditions may differ. Read-outs that look alike come from different tables or passages of the source. Marks after values point to notes of the source that are not given here.
How the values were obtained:
[1] = Phase 1 tolerability and safety (DLT, TEAEs, NCI CTCAE v4.0); type: in vivo, Japanese patients
Description: Eligible patients were assigned to one of two treatment groups (dose levels). […] Three to six patients were enrolled in each treatment group. Dose escalation was carried out according to a 3 + 3 design to define dose‐limiting toxicities (DLTs), and the maximum administered dose/recommended phase 2 dose (RP2D). […] Patients received treatment for a maximum of 30 cycles or until treatment discontinuation. […] Treatment could be postponed for up to 28 days due to toxicity; longer toxicity‐related delays would lead to study discontinuation.
The maximum tolerated dose (MTD) was defined as the highest dose level at which fewer than two of total six patients or <33% of patients (if the cohort was expanded beyond six patients) experienced a DLT. The RP2D was determined based on the observed DLTs and identified MTD; RP2D would not be dosed higher than the MTD. If the MTD was not reached, the RP2D was defined based on the safety and PK data. Prophylactic use of antiemetics and colony‐stimulating factors was not permitted during the DLT‐evaluation period, in order to clearly define the safety profile in Japanese patients.
The safety of each treatment group was assessed by evaluating study drug exposure, AEs, serious AEs (SAEs), all deaths, changes in laboratory determinations, and vital signs parameters. […] AEs were assessed according to the NCI CTCAE version 4.0.29 An independent data monitoring committee reviewed safety data for DLT evaluation.

[2] = Plasma pharmacokinetics, cycle 1 day 1, noncompartmental; type: in vivo, Japanese patients; conditions: for half-life / AUC(0-inf) / Cmax / AUC(0-t): human, plasma; for half-life: harmonic mean ± pseudo SD; for AUC(0-inf) / Cmax / AUC(0-t): mean ± SD; for AUC(0-t): read-out: AUC0–8
Text: Noncompartmental methods were used to determine the maximum observed plasma concentration (C max), the time to C max (T max), the area under the plasma concentration‐time curve (AUC), and terminal elimination half‐life (t 1/2).

[3] = test system: advanced solid tumors; assay: Preliminary antitumor efficacy (RECIST version 1.1, TTP); type: in vivo, Japanese patients; conditions: for ORR: measurable disease
Description: To determine preliminary antitumor efficacy, baseline radiographic tumor assessments were conducted within 3 weeks prior to registration and thereafter every 8 weeks from cycle 1 day 1 and at the final visit, using the Response Evaluation Criteria In Solid Tumors (RECIST) version 1.1.30 In addition, the investigator evaluated the patient for evidence of clinical disease progression at each visit. Changes in measurable tumor lesions were assessed to determine the response rate, defined as proportion of patients with complete response (CR) or partial response (PR), and time to progression (TTP), defined as the number of days from the date the patient was dosed to the date the patient experienced an event of progressive disease (PD). […] Changes from baseline in performance status were analyzed.
Unless otherwise noted, for all statistical analyses, statistical significance was determined by a two‐sided P‐value ≤0.05. Descriptive statistics were used to describe baseline demographic variables, and summary statistics were computed for PK variables at each sampling time. PK variables were determined per patient and dose level. The safety of veliparib was assessed by evaluating veliparib exposure, AEs, SAEs, all deaths, and changes in laboratory determinations and vital sign parameters. The proportion of patients with CR or PR was estimated with a 95% confidence interval (CI) constructed for the estimated proportion. The distribution of TTP was estimated using Kaplan‐Meier methodology.

[4] = test system: cancer antigen 125 (CA‐125); assay: CA-125 tumor marker response (GCIG definition); type: in vivo, Japanese patients
Description: All enrolled patients with ovarian cancer or peritoneal cancer had measurements of cancer antigen 125 (CA‐125) on day 1 of cycle 1, every cycle (28 days) thereafter, and at the final visit. CA‐125 response was measured according to the Gynecologic Cancer InterGroup (GCIG) CA‐125 response definition.31

[5] = test system: BRCA‐mutated tumors; conditions: phase 1, single agent; cited from earlier work
[6] = test system: recurrent ovarian cancer and germline BRCA1 and BRCA2 mutations; conditions: cited from earlier work
[7] = 200 mg oral, cycle 1 day 1, n = 4
[8] = 400 mg oral, cycle 1 day 1, n = 9
[9] = 400 mg oral, cycle 1 day 1, n = 12
[10] = 14 patients with measurable disease

C[C@]1(c2nc3c(C(N)=O)cccc3[nH]2)CCCN1 [veliparib]
AEs / toxicities leading to death ([1]; all patients): No toxicities leading to death; also recorded: no AEs or SAEs leading to death
patients who discontinued treatment due to AEs/toxicity ([1]; human, in vivo): 6%
patients with a grade ≥3 AE / toxicity ([1]; human, in vivo): 50%
patients with abdominal pain ([1]; human, in vivo): 31.3%
patients with at least one grade ≥1 TEAE ([1]; human, in vivo): 100%
patients with decreased appetite ([1]; human, in vivo): 62.5%
patients with diarrhea ([1]; human, in vivo): 31.3%
patients with dysgeusia ([1]; human, in vivo): 31.3%
patients with fatigue ([1]; human, in vivo): 25%
patients with insomnia ([1]; human, in vivo): 25%
patients with malaise ([1]; human, in vivo): 31.3%
patients with nausea ([1]; human, in vivo): 93.8%
patients with neutropenia ([1]; human, in vivo): 25%
patients with thrombocytopenia ([1]; human, in vivo): 25%
patients with vomiting ([1]; human, in vivo): 93.8%
recommended phase 2 dose (RP2D) ([1]; human, in vivo, po, 28 days): 400 mg BID
anemia leading to dose interruption, reduction, or delay ([1]; in vivo): one patient
decreased appetite leading to dose interruption, reduction, or delay ([1]; in vivo): one patient
essential tremor leading to dose interruption, reduction, or delay ([1]; in vivo): one patient
fatigue leading to dose interruption, reduction, or delay ([1]; in vivo): three patients
nausea leading to dose interruption, reduction, or delay ([1]; in vivo): three patients
neutropenia leading to dose interruption, reduction, or delay ([1]; in vivo): three patients
patients experiencing a SAE ([1]; in vivo): two patients
patients with a dose‐limiting toxicity (DLT) ([1]; in vivo): one patient
thrombocytopenia leading to dose interruption, reduction, or delay ([1]; in vivo): three patients
vomiting leading to dose interruption, reduction, or delay ([1]; in vivo): two patients
half-life [2, 7]: 4.6 ± 1.1 h
AUC(0-inf) [2, 7]: 13600 ± 6240 ng·h/mL
Cmax [2, 7]: 2060 ± 1390 ng/mL
AUC(0-t) [2, 7]: 8890 ± 3770 ng·h/mL
half-life [2, 8]: 4.6 ± 1.3 h
AUC(0-inf) [2, 8]: 29500 ± 9820 ng·h/mL
Cmax [2, 9]: 3280 ± 1040 ng/mL
AUC(0-t) [2, 9]: 16600 ± 3590 ng·h/mL
increase of C max and AUC with dose ([2]; single‐dose oral 200 mg and 400 mg): dose‐proportional
Best response: CR ([3]; 200 mg BID (n = 4)): 0 n (%)
Best response: Not evaluable ([3]; 200 mg BID (n = 4)): 1 (25.0) n (%)
Best response: PD ([3]; 200 mg BID (n = 4)): 1 (25.0) n (%)
Best response: PR ([3]; 200 mg BID (n = 4)): 1 (25.0) n (%)
Best response: Stable disease ([3]; 200 mg BID (n = 4)): 1 (25.0) n (%)
DCR (CR + PR + stable disease) ([3]; 200 mg BID (n = 4)): 2 (50.0) n (%)
ORR ([3]; 200 mg BID (n = 4), 95% CI 0.6–80.6): 1 ^§ (25.0) [0.6–80.6] %
Median TTP ([3]; 200 mg dose cohort): 106 (range, 17–226) days
Best response: CR ([3]; 400 mg BID (n = 10)): 0 n (%)
Best response: Not evaluable ([3]; 400 mg BID (n = 10)): 0 n (%)
Best response: PD ([3]; 400 mg BID (n = 10)): 2 (20.0) n (%)
Best response: PR ([3]; 400 mg BID (n = 10)): 1 (10.0) n (%)
Best response: Stable disease ([3]; 400 mg BID (n = 10)): 7 (70.0) n (%)
DCR (CR + PR + stable disease) ([3]; 400 mg BID (n = 10)): 8 (80.0) n (%)
ORR ([3]; 400 mg BID (n = 10), 95% CI 0.3–44.5): 1 ^¶ (10.0) [0.3–44.5] %
Median TTP ([3]; 400 mg dose cohort): 170 (range, 48–340) days
disease control overall ([3]; 12 of 16 patients): 75%
patients progressed at first tumor assessment [3, 10]: 21.4%
patients with best objective response stable disease [3, 10]: eight patients
patients with best objective response PR ([3]; 14 patients with measurable disease, both with platinum sensitive ovarian cancer): Two patients
patients who discontinued treatment due to disease progression ([3]; all 16 patients): 75%
median percentage change from baseline in the sum of the tumor sizes of target lesions ([3]; all patients, range, −46.8% to +50.0%): −10.3%
disease control rate (DCR, CR + PR + stable disease) ([3]; patients with measurable disease (10/14)): 71.4%
Median TTP ([3]; platinum sensitive ovarian or peritoneal cancer, 400 mg BID, range, 48–340): 218 days
Best response: CR ([3]; total (n = 14)): 0 n (%)
Best response: Not evaluable ([3]; total (n = 14)): 1 (7.1) n (%)
Best response: PD ([3]; total (n = 14)): 3 (21.4) n (%)
Best response: PR ([3]; total (n = 14)): 2 (14.3) n (%)
Best response: Stable disease ([3]; total (n = 14)): 8 (57.1) n (%)
DCR (CR + PR + stable disease) ([3]; total (n = 14)): 10 (71.4) n (%)
ORR ([3]; total (n = 14), 95% CI 1.8–42.8): 14.3%
ORR ([3]; total (n = 14), 95% CI 1.8–42.8, listed as Veliparib): 2 (14.3) [1.8–42.8] %
best objective response ([3]; two patients without measurable disease at baseline): non‐CR/non‐PD
median change in CA‐125 level from baseline ([4]; all patients, range: −97.8% to +155.2%): −18.8%
patients achieving CA‐125 response ([4]; ovarian (n = 14) or primary peritoneal cancer (n = 1)): 20%
clinical benefit rate (called DCR) [5]: 68%
objective response rate (ORR) [5]: 40%
DCR ([6]; GOG‐280 study, germline BRCA1 or BRCA2 mutation): 74.0%
patients with objective response ([6]; n = 50, 90% CI: 16–38%): 26%
CR (number of patients) ([6]; n = 50): 2
PR (number of patients) ([6]; n = 50): 11
median progression‐free survival ([6]; phase 2 monotherapy): 8.2 months
objective responses ([6]; platinum‐resistant patients, n = 6/30, 90% CI: 9–36%): 20%
objective responses ([6]; platinum‐sensitive patients, n = 7/20, 90% CI: 18–56%): 35%
